In ChEMBL document CHEMBL3217670, “Structures and biofilm inhibition activities of brominated furanones for Escherichia coli and Pseudomonas aeruginosa” (Medchemcomm, 2013):
Values belong to the molecule of their own block, whether it stands above or below them. Calls of active or inactive are those of the source. No cut-off for these calls is given here.

Tests used:
[1] = biological target: T1, HTH-type quorum-sensing regulator RhlR (Pseudomonas aeruginosa (strain ATCC 15692 / PAO1 / 1C / PRS 101 / LMG12228)) (UniProt P54292); assay: Agonist activity at Pseudomonas aeruginosa PAO1 RhlR expressing rhlI coexpressing LVA-GFP at 100 to 200 uM after 24 hrs by fluorescence assay
T1 sequence (whole entry): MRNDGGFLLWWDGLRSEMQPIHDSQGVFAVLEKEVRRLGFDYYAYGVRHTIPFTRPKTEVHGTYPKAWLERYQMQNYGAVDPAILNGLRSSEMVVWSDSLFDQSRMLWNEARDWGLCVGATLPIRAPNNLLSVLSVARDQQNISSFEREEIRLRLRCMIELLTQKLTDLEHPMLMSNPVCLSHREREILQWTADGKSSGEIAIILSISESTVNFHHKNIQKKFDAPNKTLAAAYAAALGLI

[2] = biological target: T2, Transcriptional activator protein LasR (Pseudomonas aeruginosa (strain ATCC 15692 / PAO1 / 1C / PRS 101 / LMG12228)) (UniProt P25084); assay: Antagonist activity at Pseudomonas aeruginosa PAO1 LasR expressing lasI coexpressing LVA-GFP at 100 to 200 uM after 24 hrs by fluorescence assay
T2 sequence (whole entry): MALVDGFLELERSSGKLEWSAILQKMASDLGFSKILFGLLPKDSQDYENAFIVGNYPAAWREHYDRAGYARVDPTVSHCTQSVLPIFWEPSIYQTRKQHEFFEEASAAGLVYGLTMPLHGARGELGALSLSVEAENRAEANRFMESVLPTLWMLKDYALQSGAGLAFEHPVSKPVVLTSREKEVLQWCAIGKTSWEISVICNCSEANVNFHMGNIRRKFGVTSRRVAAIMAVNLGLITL

[3] = tested on: Pseudomonas aeruginosa PAO1; assay: Inhibition of quorum sensing system-mediated elastase B production in Pseudomonas aeruginosa PAO1 at 200 uM after 24 hrs by colorimetric assay relative to control
Pseudomonas aeruginosa [4] = assay: Inhibition of biofilm formation in wild-type Pseudomonas aeruginosa PAO1 expressing red fluorescent protein assessed as reduction in biomass at 200 uM after 24 hrs by confocal laser scanning microscopic analysis relative to control; type: functional
Pseudomonas aeruginosa [5] = assay: Inhibition of biofilm formation in wild-type Pseudomonas aeruginosa PAO1 at 200 uM after 24 hrs by crystal violet staining-based assay relative to control; type: functional
Escherichia coli [6] = assay: Inhibition of biofilm formation in sdiA-knockout Escherichia coli AY1297 at 200 uM after 24 hrs by scanning electron microscopic analysis; type: functional, organism-based
Escherichia coli [7] = assay: Inhibition of biofilm formation in wild-type Escherichia coli RP437 at 200 uM after 24 hrs by scanning electron microscopic analysis; type: functional, organism-based
Escherichia coli [8] = assay: Inhibition of biofilm formation in sdiA-knockout Escherichia coli AY1297 expressing red fluorescent protein assessed as reduction in biomass at 200 uM after 24 hrs by confocal laser scanning microscopic analysis relative to control; type: functional; details: AY1297, 24 h
Escherichia coli [9] = assay: Inhibition of biofilm formation in wild-type Escherichia coli RP437 expressing red fluorescent protein assessed as reduction in biomass at 200 uM after 24 hrs by confocal laser scanning microscopic analysis relative to control; type: functional; details: RP437, 24 h
Escherichia coli [10] = assay: Inhibition of biofilm formation in sdiA-knockout Escherichia coli AY1297 expressing red fluorescent protein assessed as effect on surface area of biofilm at 200 uM after 24 hrs by confocal laser scanning microscopic analysis; type: functional, organism-based
Escherichia coli [11] = assay: Inhibition of biofilm formation in wild-type Escherichia coli RP437 expressing red fluorescent protein assessed as effect on surface area of biofilm at 200 uM after 24 hrs by confocal laser scanning microscopic analysis; type: functional, organism-based
Escherichia coli [12] = assay: Inhibition of biofilm formation in sdiA-knockout Escherichia coli AY1297 expressing red fluorescent protein assessed as thickness of biofilm at 200 uM after 24 hrs by confocal laser scanning microscopic analysis (reference value: 157 micrometer); type: functional
Escherichia coli [13] = assay: Inhibition of biofilm formation in wild-type Escherichia coli RP437 expressing red fluorescent protein assessed as thickness of biofilm at 200 uM after 24 hrs by confocal laser scanning microscopic analysis (reference value: 253 micrometer); type: functional
Escherichia coli [14] = assay: Inhibition of biofilm formation in sdiA-knockout Escherichia coli AY1297 at 200 uM after 24 hrs by crystal violet staining-based assay relative to control; type: functional
Escherichia coli [15] = assay: Inhibition of biofilm formation in wild-type Escherichia coli RP437 at 200 uM after 24 hrs by crystal violet staining-based assay relative to control; type: functional
Pseudomonas aeruginosa [16] = assay: Antimicrobial activity against wild-type Pseudomonas aeruginosa PAO1 assessed as inhibition of planktonic growth at 200 uM measured for 2 to 24 hrs; type: organism-based; details: in vivo
Escherichia coli [17] = assay: Antimicrobial activity against sdiA-knockout Escherichia coli AY1297 assessed as inhibition of planktonic growth at 200 uM measured for 2 to 24 hrs; type: organism-based; details: in vivo
Escherichia coli [18] = assay: Antimicrobial activity against wild-type Escherichia coli RP437 assessed as inhibition of planktonic growth at 200 uM measured for 2 to 24 hrs; type: organism-based; details: in vivo
Escherichia coli [19] = assay: Ratio of inhibition of biofilm formation in sdiA-knockout Escherichia coli AY1297 to inhibition of biofilm formation in wild-type Escherichia coli RP437; type: functional
Pseudomonas aeruginosa [20] = assay: Inhibition of biofilm formation in wild-type Pseudomonas aeruginosa PAO1 expressing red fluorescent protein assessed as effect on thickness of biofilm at 200 uM after 24 hrs by confocal laser scanning microscopic analysis; type: functional, organism-based
Pseudomonas aeruginosa [21] = assay: Inhibition of biofilm formation in wild-type Pseudomonas aeruginosa PAO1 expressing red fluorescent protein assessed as effect on surface area of biofilm at 200 uM after 24 hrs by confocal laser scanning microscopic analysis; type: functional, organism-based
Escherichia coli [22] = assay: Inhibition of biofilm formation in sdiA-knockout Escherichia coli AY1297 at 300 uM after 24 hrs by crystal violet staining-based assay relative to control; type: functional; details: AY1297, 24 h
Escherichia coli [23] = assay: Inhibition of biofilm formation in wild-type Escherichia coli RP437 at 300 uM after 24 hrs by crystal violet staining-based assay relative to control; type: functional; details: RP437, 24 h
Pseudomonas aeruginosa [24] = assay: Antimicrobial activity against wild-type Pseudomonas aeruginosa PAO1 assessed as inhibition of planktonic growth at 300 uM measured for 2 to 24 hrs; type: organism-based; details: in vivo
Escherichia coli [25] = assay: Antimicrobial activity against sdiA-knockout Escherichia coli AY1297 assessed as inhibition of planktonic growth at 300 uM measured for 2 to 24 hrs; type: organism-based; details: in vivo
Escherichia coli [26] = assay: Antimicrobial activity against wild-type Escherichia coli RP437 assessed as inhibition of planktonic growth at 300 uM measured for 2 to 24 hrs; type: organism-based; details: in vivo
Pseudomonas aeruginosa [27] = assay: Inhibition of biofilm formation in wild-type Pseudomonas aeruginosa PAO1 at 100 uM; type: functional, organism-based
Escherichia coli [28] = assay: Inhibition of biofilm formation in wild-type Escherichia coli RP437 at 100 uM; type: functional, organism-based
Pseudomonas aeruginosa [29] = assay: Antimicrobial activity against wild-type Pseudomonas aeruginosa PAO1 assessed as inhibition of planktonic growth at 1 to 100 uM measured for 2 to 24 hrs; type: organism-based; details: in vivo
Escherichia coli [30] = assay: Antimicrobial activity against wild-type Escherichia coli RP437 assessed as inhibition of planktonic growth at 1 to 100 uM measured for 2 to 24 hrs; type: organism-based; details: in vivo
Pseudomonas aeruginosa [31] = assay: Inhibition of biofilm formation in wild-type Pseudomonas aeruginosa PAO1 at 50 uM; type: functional, organism-based
Pseudomonas aeruginosa [32] = assay: Antimicrobial activity against wild-type Pseudomonas aeruginosa PAO1 assessed as inhibition of planktonic growth at 100 uM measured for 2 to 24 hrs; type: organism-based; details: in vivo

Activity [1]: Active
inhibition [2]: Active
inhibition [3]: 43%
SMILES: CC1=C(Br)/C(=C\Br)OC1=O
inhibition at 200 µM (Pseudomonas aeruginosa [4]; PAO1, 24 h): 41%
inhibition at 200 µM (Pseudomonas aeruginosa [5]; PAO1, 24 h): 43%
inhibition (Escherichia coli [6]): inactive
inhibition (Escherichia coli [7]): Active
inhibition at 200 µM (Escherichia coli [8]): 36%
inhibition at 200 µM (Escherichia coli [9]): 53%
inhibition (Escherichia coli [10]): Active
inhibition (Escherichia coli [11]): Active
Activity (Escherichia coli [12]): 137 um
Activity (Escherichia coli [13]): 126 um
inhibition at 200 µM (Escherichia coli [14]; AY1297, 24 h): 18%
inhibition at 200 µM (Escherichia coli [15]; RP437, 24 h): 50%
growth inhibition (GI) (Pseudomonas aeruginosa [16]): Non-toxic
growth inhibition (GI) (Escherichia coli [17]): Non-toxic
growth inhibition (GI) (Escherichia coli [18]): Non-toxic
Ratio (Escherichia coli [19]): 2

Activity [1]: Active
inhibition [2]: Active
inhibition [3]: 41%
SMILES: C/C(Br)=C1\C=CC(=O)O1
inhibition (Pseudomonas aeruginosa [20]): inactive
inhibition (Pseudomonas aeruginosa [21]): inactive
inhibition (Pseudomonas aeruginosa [4]): inactive
inhibition (Pseudomonas aeruginosa [5]): inactive
inhibition at 300 µM (Escherichia coli [22]): 26%
inhibition at 300 µM (Escherichia coli [23]): 34%
inhibition (Escherichia coli [14]): inactive
inhibition (Escherichia coli [15]): inactive
growth inhibition (GI) (Pseudomonas aeruginosa [24]): Non-toxic
growth inhibition (GI) (Escherichia coli [25]): Non-toxic
growth inhibition (GI) (Escherichia coli [26]): Non-toxic
Ratio (Escherichia coli [19]): 2

SMILES: O=C1C=C(Br)/C(=C/Br)O1
inhibition (Pseudomonas aeruginosa [27]): inactive
inhibition (Escherichia coli [28]): inactive
Activity (Pseudomonas aeruginosa [29]): Non-toxic
Activity (Escherichia coli [30]): Non-toxic
growth inhibition (GI) (Pseudomonas aeruginosa [16]): Non-toxic
growth inhibition (GI) (Escherichia coli [17]): Toxic
growth inhibition (GI) (Escherichia coli [18]): Toxic

SMILES: O=C1C=C/C(=C/Br)O1
inhibition (Pseudomonas aeruginosa [31]): inactive
inhibition (Escherichia coli [28]): inactive
Activity (Pseudomonas aeruginosa [32]): Toxic
Activity (Escherichia coli [30]): Non-toxic
growth inhibition (GI) (Pseudomonas aeruginosa [16]): Toxic
growth inhibition (GI) (Escherichia coli [17]): Non-toxic
growth inhibition (GI) (Escherichia coli [18]): Toxic
